Laboratory results published in ChEMBL document CHEMBL1201862, “PubChem BioAssay data set” (2004).
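Five concentrations, 48 hours, 96-well plates. GI50 marks 50% less growth.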 Activity calls are given as the source filed them. No stated cut-off is given here; in the data, active = GI50 up to about 1.1 µM and inactive = higher.

Key:
Assay in all cases: inhibition of tumour cell growth, NCI panel, 48 h
786-0 = system: 786-0
A549 = system: A549
ACHN = system: ACHN
BT-549 = system: BT-549
COLO 205 = system: COLO 205
DU-145 = system: DU-145
EKVX = system: EKVX
HCT-116 = system: HCT-116
HCT-15 = system: HCT-15
HL-60 = system: HL-60
HOP-62 = system: HOP-62
HOP-92 = system: HOP-92
HT-29 = system: HT-29
Hs-578T = system: Hs-578T
IGROV-1 = system: IGROV-1
K562 = system: K562
LOX IMVI = system: LOX IMVI
M14 = system: M14
MCF7 = system: MCF7
MDA-MB-231 = system: MDA-MB-231
MDA-MB-435 = system: MDA-MB-435
MDA-N = system: MDA-N
MOLT-4 = system: MOLT-4
Malme-3M = system: Malme-3M
NCI-H23 = system: NCI-H23
NCI-H460 = system: NCI-H460
NCI-H522 = system: NCI-H522
NCI/ADR-RES = system: NCI/ADR-RES
OVCAR-3 = system: OVCAR-3
OVCAR-4 = system: OVCAR-4
OVCAR-5 = system: OVCAR-5
OVCAR-8 = system: OVCAR-8
PC-3 = system: PC-3
RPMI-8226 = system: RPMI-8226
RXF 393 = system: RXF 393
SF-268 = system: SF-268
SF-295 = system: SF-295
SF-539 = system: SF-539
SK-MEL-28 = system: SK-MEL-28
SK-MEL-2 = system: SK-MEL-2
SK-MEL-5 = system: SK-MEL-5
SK-OV-3 = system: SK-OV-3
SN12C = system: SN12C
SNB-19 = system: SNB-19
SNB-75 = system: SNB-75
SR = system: SR
SW-620 = system: SW-620
T47D = system: T47D
TK-10 = system: TK-10
U-251 = system: U-251
UACC-257 = system: UACC-257
UACC-62 = system: UACC-62
CAKI-1 = system: CAKI-1
CCRF-CEM = system: CCRF-CEM
HCC 2998 = system: HCC 2998
KM12 = system: KM12
NCI-H226 = system: NCI-H226
UO-31 = system: UO-31
A498 = system: A498

Measured: GI50

Cc1ccc(S(=O)(=O)OC2CCN(C)CC2)cc1
inactive: 786-0 > 100 µM | A549 57.8 µM | ACHN 32.6 µM | BT-549 > 100 µM | COLO 205 21.7 µM | DU-145 > 100 µM | EKVX > 100 µM | HCT-116 46.6 µM | HL-60 18 µM | HOP-62 > 100 µM | HOP-92 19.8 µM | HT-29 > 100 µM | Hs-578T > 100 µM | IGROV-1 > 100 µM | K562 19.3 µM | LOX IMVI > 100 µM | M14 > 100 µM | MCF7 47.9 µM | MDA-MB-231 > 100 µM | MDA-MB-435 > 100 µM | MDA-N > 100 µM | MOLT-4 18.3 µM | Malme-3M 19 µM | NCI-H23 33.7 µM | NCI-H460 > 100 µM | NCI-H522 19 µM | NCI/ADR-RES > 100 µM | OVCAR-3 > 100 µM | OVCAR-4 > 100 µM | OVCAR-5 > 100 µM | OVCAR-8 > 100 µM | PC-3 > 100 µM | RPMI-8226 23.2 µM | RXF 393 > 100 µM | SF-268 > 100 µM | SF-295 > 100 µM | SF-539 88.7 µM | SK-MEL-28 > 100 µM | SK-MEL-2 > 100 µM | SK-MEL-5 15.6 µM | SK-OV-3 > 100 µM | SN12C > 100 µM | SNB-19 > 100 µM | SNB-75 42.4 µM | SR 20.5 µM | SW-620 20.1 µM | T47D 23.1 µM | TK-10 > 100 µM | U-251 > 100 µM | UACC-257 24.2 µM | UACC-62 > 100 µM
> 100 µM: HCT-15

COC(=O)C(=O)c1c2ccccc2n2ccc3c4ccccc4[nH]c3c12
> 10 µM: HCT-15
inactive: 786-0 > 10 µM | A549 > 10 µM | ACHN > 10 µM | BT-549 > 10 µM | CAKI-1 > 10 µM | CCRF-CEM > 10 µM | COLO 205 > 10 µM | DU-145 > 10 µM | HCC 2998 > 10 µM | HCT-116 > 10 µM | HL-60 > 10 µM | HOP-62 > 10 µM | HOP-92 > 10 µM | HT-29 > 10 µM | Hs-578T 3.07 µM | IGROV-1 > 10 µM | K562 > 10 µM | KM12 > 10 µM | LOX IMVI > 10 µM | M14 > 10 µM | MCF7 > 10 µM | MDA-MB-231 9.18 µM | MDA-MB-435 > 10 µM | MDA-N > 10 µM | MOLT-4 > 10 µM | Malme-3M > 10 µM | NCI-H226 > 10 µM | NCI-H23 > 10 µM | NCI-H460 > 10 µM | NCI-H522 > 10 µM | NCI/ADR-RES > 10 µM | OVCAR-3 > 10 µM | OVCAR-4 > 10 µM | OVCAR-5 > 10 µM | OVCAR-8 > 10 µM | PC-3 > 10 µM | RPMI-8226 > 10 µM | RXF 393 > 10 µM | SF-268 > 10 µM | SF-295 > 10 µM | SF-539 3.27 µM | SK-MEL-2 > 10 µM | SK-MEL-5 > 10 µM | SK-OV-3 > 10 µM | SN12C > 10 µM | SNB-19 > 10 µM | SNB-75 > 10 µM | SR > 10 µM | SW-620 > 10 µM | T47D > 10 µM | TK-10 > 10 µM | U-251 > 10 µM | UACC-257 > 10 µM | UACC-62 > 10 µM | UO-31 > 10 µM
active: EKVX 0.406 µM

CN1C(=O)N/C(=C\c2ccc(S(=O)(=O)N/N=C\C(O)C(O)C(O)CO)cc2)C1=O (configuration not stated)
> 100 µM: HCT-15
inactive: 786-0 > 100 µM | A498 > 100 µM | A549 > 100 µM | ACHN > 100 µM | BT-549 > 100 µM | CAKI-1 > 100 µM | CCRF-CEM > 100 µM | COLO 205 > 100 µM | DU-145 > 100 µM | EKVX > 100 µM | HCC 2998 > 100 µM | HCT-116 > 100 µM | HL-60 > 100 µM | HOP-62 > 100 µM | HOP-92 > 100 µM | HT-29 > 100 µM | Hs-578T > 100 µM | IGROV-1 > 100 µM | K562 > 100 µM | KM12 > 100 µM | LOX IMVI > 100 µM | M14 > 100 µM | MCF7 > 100 µM | MDA-MB-231 > 100 µM | MDA-MB-435 > 100 µM | MDA-N > 100 µM | MOLT-4 > 100 µM | Malme-3M > 100 µM | NCI-H226 > 10 µM | NCI-H23 > 100 µM | NCI-H460 > 100 µM | NCI/ADR-RES > 100 µM | OVCAR-3 > 100 µM | OVCAR-4 > 100 µM | OVCAR-5 > 100 µM | OVCAR-8 > 100 µM | PC-3 > 100 µM | RPMI-8226 > 100 µM | RXF 393 > 100 µM | SF-268 > 100 µM | SF-295 > 100 µM | SK-MEL-28 > 100 µM | SK-MEL-2 > 100 µM | SK-MEL-5 > 100 µM | SK-OV-3 > 100 µM | SN12C > 100 µM | SNB-19 > 100 µM | SNB-75 > 100 µM | SR > 100 µM | SW-620 > 100 µM | T47D > 100 µM | TK-10 > 100 µM | U-251 > 100 µM | UACC-257 > 100 µM | UACC-62 > 100 µM | UO-31 > 100 µM

N#CCCN(CCC#N)c1ccc(C(=N/c2ccc(Cl)cc2)/N=N/c2ccc(Cl)cc2)cc1
inactive: 786-0 18.3 µM | A498 19.9 µM | A549 16.9 µM | ACHN 18.2 µM | BT-549 14 µM | CAKI-1 16.4 µM | CCRF-CEM 35.2 µM | COLO 205 16.2 µM | DU-145 15.5 µM | EKVX 18.7 µM | HCC 2998 12.8 µM | HCT-116 19 µM | HOP-62 21.7 µM | HOP-92 19.2 µM | HT-29 19.8 µM | Hs-578T 19.4 µM | IGROV-1 14.6 µM | K562 32.5 µM | KM12 13.6 µM | M14 21.5 µM | MCF7 10.1 µM | MDA-MB-231 19.5 µM | MDA-MB-435 18.2 µM | MDA-N 19.5 µM | MOLT-4 22.5 µM | NCI-H226 17.3 µM | NCI-H23 17.5 µM | NCI-H460 13.4 µM | NCI-H522 17 µM | NCI/ADR-RES 17.2 µM | OVCAR-3 16.7 µM | OVCAR-4 17.9 µM | OVCAR-5 17.2 µM | OVCAR-8 17.6 µM | PC-3 15.6 µM | RPMI-8226 47.2 µM | RXF 393 14.3 µM | SF-268 15.7 µM | SF-295 10.7 µM | SF-539 17.8 µM | SK-MEL-28 59.2 µM | SK-MEL-2 9.23 µM | SK-MEL-5 10.1 µM | SK-OV-3 33 µM | SN12C 17.7 µM | SNB-19 24.2 µM | SNB-75 20 µM | SR 18.9 µM | SW-620 17.7 µM | T47D 7.6 µM | TK-10 18.5 µM | U-251 19 µM | UACC-257 15 µM | UACC-62 10.9 µM | UO-31 15.2 µM
10.7 µM: HCT-15

COC(=O)C1=C(O)C(C(=O)OC)[C@]2(O)[C@H](C(=O)OC)[C@H]1C[C@@H](c1c(Cl)cccc1Cl)[C@H]2C(=O)OC (some centres not stated)
inactive: 786-0 1.73 µM | A498 2 µM | A549 2.23 µM | ACHN 2.19 µM | BT-549 1.88 µM | CAKI-1 2.83 µM | COLO 205 2.07 µM | DU-145 2.68 µM | EKVX 4.25 µM | HCC 2998 1.66 µM | HCT-116 1.97 µM | HL-60 5.81 µM | HOP-62 3.07 µM | HOP-92 2.69 µM | HT-29 2.33 µM | Hs-578T 3.35 µM | IGROV-1 2.16 µM | K562 2.05 µM | KM12 2.55 µM | LOX IMVI 1.87 µM | M14 1.55 µM | MCF7 3.24 µM | MDA-MB-231 2.96 µM | MDA-MB-435 1.33 µM | MDA-N 1.37 µM | MOLT-4 1.81 µM | Malme-3M 2.07 µM | NCI-H226 2.14 µM | NCI-H23 2.02 µM | NCI-H460 2.31 µM | NCI/ADR-RES 2.04 µM | OVCAR-3 2.77 µM | OVCAR-4 3.6 µM | OVCAR-8 1.79 µM | PC-3 1.99 µM | RPMI-8226 1.51 µM | RXF 393 1.75 µM | SF-268 3.13 µM | SF-295 2.67 µM | SF-539 1.93 µM | SK-MEL-28 2.24 µM | SK-MEL-2 1.49 µM | SK-MEL-5 1.66 µM | SK-OV-3 3.96 µM | SN12C 2.23 µM | SNB-19 2.07 µM | SNB-75 2.23 µM | SR 1.82 µM | SW-620 2.55 µM | T47D 3.79 µM | U-251 1.32 µM | UACC-257 2.08 µM | UACC-62 2.02 µM | UO-31 1.65 µM
1.74 µM: HCT-15
